Where two headings read alike, the source gives them in different places.
What was measured:
DAT [1] = biological target: DAT (Canis lupus familiaris, UniProt B6EUL3); experiment: DAT occupancy, dog; format: in vivo; details: single binding site model, read-out: total plasma concentration producing 50% effect (EC50), DAT occupancy
Experimental: (§1) The effects of Compound 1-(4S) in the mouse tail suspension model of depression and target site occupancy were assessed to compare occupancies associated with the behavioral response. The mouse tail suspension model is known the art. […] The lowest effective dose of Compound 1-(4S), 0.3 mg/kg, PO, decreased immobility by 77% relative to vehicle-treated controls. […] Administration of Compound 1-(4S) led to dose-dependent occupancy of SERT, NET, and DAT binding sites in the brain. At the lowest behaviorally-effective dose (0.3 mg/kg), occupancies were 86±1% of SERT, 76±3% of NET, and 28±3% of DAT. At 1 mg/kg, occupancies were 89±1%, 82±1% and 54±3% at SERT, NET, and DAT, respectively. Pharmacokinetics and pharmacodynamics (PD) in mouse, rat, and dog focused primarily on DAT occupancy since SERT and NET occupancies were saturated by drug for most, if not all, of the times studied. DAT occupancy increased as a function of increasing plasma exposure. The DAT occupancy to total plasma level could be fitted using a single binding site model and plasma level ED50 (the dose producing 50% effect) values could be calculated.

rectal temperature [2] = experiment: Thermogenic effect (rectal temperature), mouse; format: in vivo; details: 4 hours after doses of 1, 3, and 10 mg/kg
From the text: (§2) To better understand the margin between doses of Compound 1-(4S) that are effective in the mouse tail suspension models and those that lead to monoamine-related side effects, locomotor activity was examined to assess psychostimulant properties and stereotypy was examined to assess more severe DA-related side effects. Increased body temperature, another effect that has been attributed to DA pharmacology, was also studied. In the mouse, Compound 1-(4S) increased locomotor activity and stereotypy scores at doses of 3.0 mg/kg and 10 mg/kg, respectively. Thus, the margin between the Compound 1-(4S) effective dose in the mouse tail suspension and increased locomotor activity was 10-fold and the margin versus activity in stereotypy was 30-fold. The thermogenic effect of Compound 1-(4S) was studied in mice and rats by measuring changes in rectal temperature following administration of the compound. […] The onset of the thermogenesis was earlier as the dose was increased. The levels of SERT and NET occupancy were over 80% and appeared saturated across the doses tested. The DAT occupancy was dose-dependent, with 55±5.7% at 1.0 mg/kg, 74±6% at 3.0 mg/kg, and 83±0.8% at 10 mg/kg. […] The onset of the temperature increase was earlier at the highest dose of 10 mg/kg. […] The DAT occupancy was 37±8.3%, 55±5.2%, and 71±1.7% at 1.0, 3.0, and 10 mg/kg, respectively. […]

Distribution coefficient = format: physicochemical
Solution pH = format: physicochemical; details: at about 1 μg/mL concentration in water
Stability = format: physicochemical; details: with protection from light
SERT = biological target: T1, SERT (Mus musculus, UniProt Q60857); experiment: SERT occupancy in the brain, mouse; format: in vivo
T1 construct: from tissue; host or cells: mouse brain
T1 sequence (Q60857 whole entry): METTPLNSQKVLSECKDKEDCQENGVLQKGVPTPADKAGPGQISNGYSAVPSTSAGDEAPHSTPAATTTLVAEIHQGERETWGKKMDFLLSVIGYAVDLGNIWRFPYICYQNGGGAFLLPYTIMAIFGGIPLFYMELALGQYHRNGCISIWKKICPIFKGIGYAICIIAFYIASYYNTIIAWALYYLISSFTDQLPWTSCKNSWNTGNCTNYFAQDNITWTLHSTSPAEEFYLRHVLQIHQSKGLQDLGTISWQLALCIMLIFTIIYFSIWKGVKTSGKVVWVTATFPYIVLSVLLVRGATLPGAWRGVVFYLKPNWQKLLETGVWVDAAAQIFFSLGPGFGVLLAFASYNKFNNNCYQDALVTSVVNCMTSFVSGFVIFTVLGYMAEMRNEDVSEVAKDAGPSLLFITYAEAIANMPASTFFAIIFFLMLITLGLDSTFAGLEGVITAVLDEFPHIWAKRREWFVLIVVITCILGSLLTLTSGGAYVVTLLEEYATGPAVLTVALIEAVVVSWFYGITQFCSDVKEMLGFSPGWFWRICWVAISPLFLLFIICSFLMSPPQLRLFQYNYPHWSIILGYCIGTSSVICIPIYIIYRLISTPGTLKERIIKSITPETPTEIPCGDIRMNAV
Experimental: as §1
(§3) To better understand the margin between doses of Compound 1-(4S) that are effective in the mouse tail suspension models and those that lead to monoamine-related side effects, locomotor activity was examined to assess psychostimulant properties and stereotypy was examined to assess more severe DA-related side effects. Increased body temperature, another effect that has been attributed to DA pharmacology, was also studied. In the mouse, Compound 1-(4S) increased locomotor activity and stereotypy scores at doses of 3.0 mg/kg and 10 mg/kg, respectively. Thus, the margin between the Compound 1-(4S) effective dose in the mouse tail suspension and increased locomotor activity was 10-fold and the margin versus activity in stereotypy was 30-fold. The thermogenic effect of Compound 1-(4S) was studied in mice and rats by measuring changes in rectal temperature following administration of the compound. […] The onset of the thermogenesis was earlier as the dose was increased. […]

cocaine-lever responding = details: rat, in vivo; for cocaine-lever responding: po
Experimental: Compound 1-(4S) was evaluated in a cocaine discrimination assay in rats, a model used to address abuse potential. The cocaine discrimination assay is known the art Compound 1-(4S) was administered and the percentage of rats that responded by selecting the cocaine-associated lever was measured. […] Since the subjective effects of cocaine are evident 15 minutes after dosing, Compound 1-(4S) was tested at the earlier time point. […] In addition, the onset of this partial effect was slower than the onset of the subjective effects of cocaine in this model.

NET [3] = biological target: T2, NET (Mus musculus, UniProt O55192); experiment: NET occupancy in the brain, mouse; format: in vivo
T2 construct: from tissue; host or cells: mouse brain
T2 sequence (O55192 whole entry): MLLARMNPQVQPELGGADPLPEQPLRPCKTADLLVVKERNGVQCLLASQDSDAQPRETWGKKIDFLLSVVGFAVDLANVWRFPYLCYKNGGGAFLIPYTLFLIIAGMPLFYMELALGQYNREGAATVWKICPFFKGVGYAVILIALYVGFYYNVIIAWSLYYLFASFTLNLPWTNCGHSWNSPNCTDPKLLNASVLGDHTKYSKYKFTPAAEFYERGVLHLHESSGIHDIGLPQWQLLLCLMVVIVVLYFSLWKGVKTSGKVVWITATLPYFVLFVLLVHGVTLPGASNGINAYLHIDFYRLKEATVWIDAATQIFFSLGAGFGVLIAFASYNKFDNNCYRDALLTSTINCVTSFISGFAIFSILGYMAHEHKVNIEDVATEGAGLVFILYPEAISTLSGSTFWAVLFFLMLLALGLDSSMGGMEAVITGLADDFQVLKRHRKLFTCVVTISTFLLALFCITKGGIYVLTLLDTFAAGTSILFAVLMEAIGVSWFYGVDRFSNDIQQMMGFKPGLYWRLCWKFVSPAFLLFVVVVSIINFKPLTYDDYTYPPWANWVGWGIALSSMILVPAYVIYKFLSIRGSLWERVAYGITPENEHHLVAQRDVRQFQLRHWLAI
Experimental: as §1, §3

DAT [4] = biological target: DAT (Homo sapiens, UniProt Q01959); experiment: Competition binding, membranes from HEK cells overexpressing DAT; parameters: expressed in transfected cells; host or cells: HEK cells (membranes); details: radioligand at Kd concentration; HEK cell membranes
Chain of DAT (Homo sapiens, UniProt Q01959) (Q01959 whole entry): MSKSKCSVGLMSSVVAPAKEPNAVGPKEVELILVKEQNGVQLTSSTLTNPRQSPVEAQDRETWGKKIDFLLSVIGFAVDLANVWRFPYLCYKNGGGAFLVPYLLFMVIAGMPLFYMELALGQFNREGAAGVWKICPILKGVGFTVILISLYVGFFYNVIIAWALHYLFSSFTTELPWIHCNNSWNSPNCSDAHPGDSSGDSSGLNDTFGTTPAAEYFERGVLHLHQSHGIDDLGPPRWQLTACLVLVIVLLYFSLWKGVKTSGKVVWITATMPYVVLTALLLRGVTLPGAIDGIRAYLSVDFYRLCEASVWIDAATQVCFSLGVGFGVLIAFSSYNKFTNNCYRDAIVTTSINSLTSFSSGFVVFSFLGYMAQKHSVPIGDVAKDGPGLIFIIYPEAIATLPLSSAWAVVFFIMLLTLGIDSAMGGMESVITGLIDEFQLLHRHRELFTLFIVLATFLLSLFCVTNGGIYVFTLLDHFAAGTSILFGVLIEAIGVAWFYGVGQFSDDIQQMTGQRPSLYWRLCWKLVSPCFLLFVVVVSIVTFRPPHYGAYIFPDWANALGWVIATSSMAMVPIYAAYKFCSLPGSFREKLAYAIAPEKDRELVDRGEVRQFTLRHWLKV
Experimental: (§4) Competition binding experiments were performed to determine the in vitro binding potencies (IC50 values) of Compound 1-(4S) for SERT, DAT, and NET. Membranes prepared from human embryonic kidney (HEK) cells overexpressing each transporter were employed. Radioligands were used at their respective affinity constant (Kd) concentrations for each transporter to enable direct comparisons of the IC50 values between assays.

[5] = pH-Solubility profile (aqueous); format: physicochemical; details: aqueous solution, aqueous buffer; solution pH 6.5 and above
NET [6] = biological target: T3, NET (Rattus norvegicus, UniProt Q63380); experiment: NET occupancy, rat; format: in vivo; details: thermogenesis study, all 3 doses (1.0, 3.0, 10 mg/kg)
T3 construct: from tissue; host or cells: rat, in vivo dosing
T3 sequence (Q63380 1-617): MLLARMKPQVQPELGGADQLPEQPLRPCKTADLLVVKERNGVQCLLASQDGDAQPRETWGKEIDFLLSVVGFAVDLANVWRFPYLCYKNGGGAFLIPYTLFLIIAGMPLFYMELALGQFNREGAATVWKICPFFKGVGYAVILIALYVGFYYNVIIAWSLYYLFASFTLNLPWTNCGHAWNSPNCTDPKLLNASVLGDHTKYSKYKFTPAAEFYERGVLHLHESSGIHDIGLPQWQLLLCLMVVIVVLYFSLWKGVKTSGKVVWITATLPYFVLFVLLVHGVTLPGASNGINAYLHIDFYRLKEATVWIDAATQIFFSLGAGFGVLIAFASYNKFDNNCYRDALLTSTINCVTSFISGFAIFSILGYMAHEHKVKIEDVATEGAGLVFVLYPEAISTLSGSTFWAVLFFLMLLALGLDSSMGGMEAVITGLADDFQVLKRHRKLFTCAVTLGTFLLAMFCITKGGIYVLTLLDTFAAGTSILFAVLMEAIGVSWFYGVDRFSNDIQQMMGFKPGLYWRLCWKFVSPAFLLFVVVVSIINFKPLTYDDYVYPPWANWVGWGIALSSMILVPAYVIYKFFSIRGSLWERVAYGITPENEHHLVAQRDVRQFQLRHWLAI
From the text: as §2

NET [7] = biological target: NET (Homo sapiens, UniProt P23975); experiment: Competition binding, membranes from HEK cells overexpressing NET; parameters: expressed in transfected cells; host or cells: HEK cells (membranes); details: radioligand at Kd concentration; HEK cell membranes
Chain of NET (Homo sapiens, UniProt P23975) (P23975 whole entry): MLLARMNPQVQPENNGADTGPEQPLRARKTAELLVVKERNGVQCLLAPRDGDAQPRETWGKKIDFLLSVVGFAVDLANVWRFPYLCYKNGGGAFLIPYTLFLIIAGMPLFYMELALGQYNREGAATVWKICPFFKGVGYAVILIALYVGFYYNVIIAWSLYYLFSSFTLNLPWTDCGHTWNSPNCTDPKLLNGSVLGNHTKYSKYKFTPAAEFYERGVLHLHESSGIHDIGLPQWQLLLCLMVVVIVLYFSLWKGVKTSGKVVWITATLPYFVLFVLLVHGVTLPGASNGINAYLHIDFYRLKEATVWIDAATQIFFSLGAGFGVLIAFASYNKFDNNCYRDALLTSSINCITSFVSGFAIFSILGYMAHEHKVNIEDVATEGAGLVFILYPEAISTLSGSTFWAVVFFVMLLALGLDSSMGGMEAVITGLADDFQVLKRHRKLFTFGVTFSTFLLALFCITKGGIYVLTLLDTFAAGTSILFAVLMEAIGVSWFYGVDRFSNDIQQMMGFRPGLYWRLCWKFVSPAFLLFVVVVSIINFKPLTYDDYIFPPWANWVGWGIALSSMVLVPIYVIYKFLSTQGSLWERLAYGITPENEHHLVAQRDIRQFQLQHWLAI
Experimental: as §4

stereotypy = experiment: Stereotypy, mouse; format: in vivo
From the text: as §2

locomotor activity = experiment: Locomotor activity, mouse; format: in vivo
From the text: as §2

rectal temperature [8] = experiment: Thermogenic effect (rectal temperature), rat; format: in vivo
From the text: (§5) To better understand the margin between doses of Compound 1-(4S) that are effective in the mouse tail suspension models and those that lead to monoamine-related side effects, locomotor activity was examined to assess psychostimulant properties and stereotypy was examined to assess more severe DA-related side effects. Increased body temperature, another effect that has been attributed to DA pharmacology, was also studied. In the mouse, Compound 1-(4S) increased locomotor activity and stereotypy scores at doses of 3.0 mg/kg and 10 mg/kg, respectively. Thus, the margin between the Compound 1-(4S) effective dose in the mouse tail suspension and increased locomotor activity was 10-fold and the margin versus activity in stereotypy was 30-fold. The thermogenic effect of Compound 1-(4S) was studied in mice and rats by measuring changes in rectal temperature following administration of the compound. […] The onset of the thermogenesis was earlier as the dose was increased. The levels of SERT and NET occupancy were over 80% and appeared saturated across the doses tested. The DAT occupancy was dose-dependent, with 55±5.7% at 1.0 mg/kg, 74±6% at 3.0 mg/kg, and 83±0.8% at 10 mg/kg. […] The onset of the temperature increase was earlier at the highest dose of 10 mg/kg. […] The DAT occupancy was 37±8.3%, 55±5.2%, and 71±1.7% at 1.0, 3.0, and 10 mg/kg, respectively. Consistent with data obtained with mice, the thermogenic effect of Compound 1-(4S) is dose dependently related to DAT occupancy and at least 50% DAT occupancy is needed for this effect.

DAT [9] = biological target: T4, DAT (Mus musculus, UniProt Q61327); experiment: DAT occupancy in the brain, mouse; format: in vivo
T4 construct: from tissue; host or cells: mouse brain
T4 sequence (Q61327 whole entry): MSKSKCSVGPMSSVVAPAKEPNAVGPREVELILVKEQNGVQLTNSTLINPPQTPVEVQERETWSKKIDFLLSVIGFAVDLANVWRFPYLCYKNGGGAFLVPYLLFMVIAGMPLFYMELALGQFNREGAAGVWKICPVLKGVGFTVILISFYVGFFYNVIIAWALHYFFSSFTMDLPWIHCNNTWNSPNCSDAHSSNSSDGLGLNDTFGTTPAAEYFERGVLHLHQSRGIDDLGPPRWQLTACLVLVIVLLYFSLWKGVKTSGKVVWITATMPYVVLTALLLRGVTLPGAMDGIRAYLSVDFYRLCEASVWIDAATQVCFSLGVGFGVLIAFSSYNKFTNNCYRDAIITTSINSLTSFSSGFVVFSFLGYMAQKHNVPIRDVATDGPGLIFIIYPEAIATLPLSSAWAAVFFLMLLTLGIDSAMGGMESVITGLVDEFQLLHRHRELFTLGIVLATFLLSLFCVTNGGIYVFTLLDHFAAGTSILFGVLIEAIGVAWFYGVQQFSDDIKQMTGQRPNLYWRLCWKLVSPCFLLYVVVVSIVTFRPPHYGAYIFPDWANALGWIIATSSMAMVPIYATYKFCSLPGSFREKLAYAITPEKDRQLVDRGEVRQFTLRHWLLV
Experimental: as §1, §5

[10] = mouse brain, 0.3 mg/kg, tail suspension study
[11] = mouse brain, 1 mg/kg, tail suspension study
[12] = mouse, thermogenesis study, across doses 1, 3, 10 mg/kg

Chain of DAT (Canis lupus familiaris, UniProt B6EUL3) (B6EUL3 1-617): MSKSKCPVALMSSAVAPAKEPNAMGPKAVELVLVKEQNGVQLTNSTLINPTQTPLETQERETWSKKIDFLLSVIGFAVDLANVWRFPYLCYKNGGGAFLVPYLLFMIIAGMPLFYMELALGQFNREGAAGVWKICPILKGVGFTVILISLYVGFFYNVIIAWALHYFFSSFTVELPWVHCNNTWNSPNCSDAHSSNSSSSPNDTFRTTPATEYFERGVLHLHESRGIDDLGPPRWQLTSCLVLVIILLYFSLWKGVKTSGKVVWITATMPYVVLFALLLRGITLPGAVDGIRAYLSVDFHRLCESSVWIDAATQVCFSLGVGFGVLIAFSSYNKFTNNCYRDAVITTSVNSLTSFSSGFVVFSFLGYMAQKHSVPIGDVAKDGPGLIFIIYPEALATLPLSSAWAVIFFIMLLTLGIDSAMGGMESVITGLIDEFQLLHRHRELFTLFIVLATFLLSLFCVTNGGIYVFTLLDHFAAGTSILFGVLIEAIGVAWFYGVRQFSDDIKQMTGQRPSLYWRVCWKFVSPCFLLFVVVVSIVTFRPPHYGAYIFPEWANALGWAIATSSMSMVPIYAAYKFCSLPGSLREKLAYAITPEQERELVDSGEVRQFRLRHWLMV

CN1Cc2cc(-c3ccc(N)nn3)ccc2[C@H](c2ccc3ccccc3c2)C1 [Compound 1-(4S), 6-[(4S)-1,2,3,4-tetrahydro-2-methyl-4-(2-naphthalenyl)-7-isoquinolinyl]-3-pyridazinamine]
EC50 (DAT [1]): 103 nM
change in rectal temperature (rectal temperature [2]): significant increases
Distribution coefficient Log Do/b (Distribution coefficient; pH 6.5): 3.10
Distribution coefficient Log Do/b (Distribution coefficient; pH 7.4): 3.82
Solution pH (Solution pH): ~7.0 at about 1 μg/mL concentration in water
Stability (Stability): Compound 1-(4S) is stable up to 25 °C with protection
receptor occupancy at 0.3 mg/kg (SERT; [10]): 86 ± 1%
receptor occupancy at 1 mg/kg (SERT; [11]): 89 ± 1%
SERT occupancy (SERT; [12]): over 80%
substitution for the cocaine stimulus (cocaine-lever responding): partially substituted for the cocaine stimulus
cocaine-lever responding (cocaine-lever responding; 0.1 mg/kg, 60 min): less than 1%
cocaine-lever responding (cocaine-lever responding; 0.3 mg/kg, 15 min): 11%
cocaine-lever responding (cocaine-lever responding; 0.3 mg/kg, 60 min): 53%
cocaine-lever responding (cocaine-lever responding; 1 mg/kg, 15 min): 10%
cocaine-lever responding (cocaine-lever responding; 3 mg/kg, 15 min): 28%
receptor occupancy at 0.3 mg/kg (NET [3]; [10]): 76 ± 3%
receptor occupancy at 1 mg/kg (NET [3]; [11]): 82 ± 1%
NET occupancy (NET [3]; [12]): over 80%
IC50 (DAT [4]): 5.67 ± 0.36 nM
solubility [5]: ≤ 1 µg/mL
NET occupancy (NET [6]): nearly saturated
IC50 (NET [7]): 7.99 ± 0.43 nM
dose that increased stereotypy scores (stereotypy): 10 mg/kg
margin between effective dose in mouse tail suspension and activity in stereotypy (stereotypy): 30 fold
dose that increased locomotor activity (locomotor activity): 3.0 mg/kg
margin between effective dose in mouse tail suspension and increased locomotor activity (locomotor activity): 10 fold
significant increase in rectal temperature (rectal temperature [8]; rat, 1.0 mg/kg): not
change in rectal temperature (rectal temperature [8]; rat, doses of 3.0 and 10 mg/kg): Significant increases
DAT occupancy needed for the thermogenic effect (rectal temperature [8]; rats, consistent with mice): at least 50%
receptor occupancy at 0.3 mg/kg (DAT [9]; [10]): 28 ± 3%
receptor occupancy at 1 mg/kg (DAT [9]; [11]): 54 ± 3%
EC50 (DAT [9]; single binding site model, read-out: total plasma concentration producing 50% effect (EC50), DAT occupancy): 1190 nM
receptor occupancy at 1 mg/kg (DAT [9]; thermogenesis study, 1.0 mg/kg): 55 ± 5.7%
receptor occupancy at 3 mg/kg (DAT [9]; thermogenesis study, 3.0 mg/kg): 74 ± 6%
receptor occupancy at 10 mg/kg (DAT [9]; thermogenesis study, 10 mg/kg): 83 ± 0.8%

From patent US20160022675A1, “PROCESSES FOR PREPARING TETRAHYDROISOQUINOLINES” (BRISTOL-MYERS SQUIBB COMPANY, priority 2013, published 2016)
